# Experimental data taken from publication PMC12598851, “Exploiting Avidity Effects for the Discovery of Low Affinity Protein-Binding Fragments” (Journal of Medicinal Chemistry, 2025).
# Where “and” joins values, the source holds several entries; their conditions need not be identical. Equal entries are not always repeated. Entries after “also recorded” stand apart in the source; their conditions may differ. Where two headings read alike, the source gives them in different places.
# Columns and labels:
# [1] = molecular target: T1, Rpn2-binding surface of Rpn13 (GST-Rpn13 PRU) (Homo sapiens, UniProt Q16186); assay: Competition assay with Rpn2 peptide for GST-Rpn13 PRU fusion protein; details: protein preincubated with Rpn2 peptide 100 μM
# T1 construct: the human Rpn13 PRU (pleckstrin-like receptor for ubiquitin) domain is linked to the C-terminus of GST; His6 (C); made in house; host or cells: E. coli BL21 (DE3) codon plus RP
# T1 sequence (Q16186 18-131 limits assumed): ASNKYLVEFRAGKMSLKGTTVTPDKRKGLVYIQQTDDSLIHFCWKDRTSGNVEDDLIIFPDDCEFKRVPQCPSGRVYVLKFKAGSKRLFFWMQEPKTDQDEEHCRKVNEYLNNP
# Procedure: As mentioned above, the Rpn13 PRU domain binds to the proteasome via association with a C-terminal peptide tail from Rpn2. […] The amount of protein retained on the resin was then evaluated using the same protocol described above.
# This assay was conducted following the exact same procedure described above using two samples: GST-Rpn13 PRU (100 nM) alone, and GST-Rpn13 PRU (100 nM) that had been pretreated with Rpn2 peptide (100 μM) for 1 h at 4 °C. Each sample was added to separate wells of a microtiter plate.
# Rpn13 PRU = molecular target: T2, Rpn13 PRU (Homo sapiens, UniProt Q16186); assay: SPR, soluble compound binding to biotinylated Rpn13 PRU captured on SA chip
# T2 construct: FLAG (N); His10 (C); made in house; host or cells: E. coli BL21 (DE3) codon plus RP
# T2 sequence (Q16186 18-131 limits assumed): as above
# Procedure: 4000–5000 Ru of Biotinylated Rpn13-PRU (50 μg/mL in running buffer (20 mM phosphate buffer with 2.7 mM KCl, 137 mM NaCl, 0.05% Surfactant P20, 1 mM DTT and 1 mM EDTA)) was captured on a SA sensor chip (Cytiva). Testing compounds were evaluated using the multiple-cycle kinetic/affinity method in running buffer with indicated association and dissociation time, and a flow rate of 40 μL/min. Data was analyzed with the BIAcore Insight Evaluation Software and the binding affinities were obtained by fitting the sensor grams to the 1:1 binding kinetics, steady-state affinity models or steady-state affinity model with constant R max.
# [2] = molecular target: T3, GST-Rpn13 PRU fusion protein (UniProt P08515+Q16186); assay: Bead-displayed fragment screen against GST-Rpn13 PRU fusion protein; format: binding, human; details: GST-Rpn13 PRU 500 nM, A647 anti-FLAG antibody staining
# T3 construct: the human Rpn13 PRU (pleckstrin-like receptor for ubiquitin) domain is linked to the C-terminus of GST; His6 (C); made in house; host or cells: E. coli BL21 (DE3) codon plus RP
# T3 sequence (P08515+Q16186 fused): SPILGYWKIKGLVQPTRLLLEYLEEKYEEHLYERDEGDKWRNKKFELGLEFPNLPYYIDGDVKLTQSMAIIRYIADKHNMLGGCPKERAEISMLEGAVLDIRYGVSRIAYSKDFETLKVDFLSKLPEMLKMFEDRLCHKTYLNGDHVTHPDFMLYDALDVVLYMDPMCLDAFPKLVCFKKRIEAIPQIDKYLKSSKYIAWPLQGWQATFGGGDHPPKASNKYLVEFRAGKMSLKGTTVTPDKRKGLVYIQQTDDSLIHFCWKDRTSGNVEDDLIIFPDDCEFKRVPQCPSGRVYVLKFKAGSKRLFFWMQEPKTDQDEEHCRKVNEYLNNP
# Procedure: The beads (one compound per well) were then incubated with GST-Rpn13 PRU fusion protein (500 nM) and, after washing, the amount of protein retained on the beads was measured after staining with Alexafluor-647 (A647)-labeled anti-FLAG antibody using a plate reader (Figure a). […] Next a competition experiment was performed in which the GST-Rpn13 PRU fusion protein was preincubated with excess glutathione (1 mM) to determine if the fragments, to some extent, engage the peptide-binding site of GST. […] We speculate that A8 and A88 probably bind to both GST and Rpn13, explaining the high signal in the original screen (Figure b). Finally, all five hit-displaying beads were incubated with only Alexa Fluor 647–labeled anti-FLAG antibody to confirm that the hits are not antibody binders (Figure S11).
# General notes: • At each step, contents were mixed by pipetting up and down 3–5 times. • All steps following the addition of Alexa Fluor 647 anti-FLAG Tag Antibody were conducted in the dark. • Alexa Fluor 647 anti-FLAG Tag Antibody was purchased from commercial sources; (BioLengend cat #637316). […]
# Each sample was transferred to a black 384-well plate in triplicate (3 × 20 μL per well). […] Fluorescence intensity was measured using a TECAN plate reader. Background fluorescence (from blank wells) was subtracted before further data analysis.
# Streptavidin (SA) = molecular target: T4, Streptavidin (SA) (Streptomyces avidinii, UniProt P22629); assay: SPR, soluble compound binding to immobilized streptavidin
# T4 construct: purchased
# T4 sequence (P22629 25-183, species assumed): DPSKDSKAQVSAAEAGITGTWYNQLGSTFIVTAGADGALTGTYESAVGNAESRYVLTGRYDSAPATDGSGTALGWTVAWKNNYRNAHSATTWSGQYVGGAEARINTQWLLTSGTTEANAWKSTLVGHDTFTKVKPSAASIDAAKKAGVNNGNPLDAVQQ
# Procedure: The SPR binding affinity testing was conducted using the BIAcore 1K system (Cytiva) with BIAcore Insight Control Software. Streptavidin (50 μg/mL in 10 mM pH 5.0 NaOAc) was immobilized on a CM5 sensor chip (Cytiva) via amide coupling, using HBS-EP+ (10 mM HEPES, 150 mM NaCl, 3 mM EDTA, and 0.05% v/v Surfactant P20) as the immobilization buffer. Approximately 1000 RU of immobilization was achieved. Testing compounds were evaluated using the multiple-cycle kinetic/affinity method in PBS-P+ running buffer (20 mM phosphate buffer, 2.7 mM KCl, 137 mM NaCl, and 0.05% Surfactant P20), with a 200 s association time, 200 s dissociation time, and a flow rate of 45 μL/min. Binding affinities for the testing compounds were determined by fitting the sensor grams to both the 1:1 binding kinetics and steady-state affinity models provided in the BIAcore Insight Evaluation Software.
# SA-647 = molecular target: T5, SA-647 (Streptomyces avidinii, UniProt P22629); assay: Dose-dependent binding of SA-647 to bead-displayed ligands by FACS (MFI); details: SA-647 0.1 to 1000 nM
# T5 construct: purchased ThermoFisher S3235
# T5 sequence (P22629 37-163 limits assumed): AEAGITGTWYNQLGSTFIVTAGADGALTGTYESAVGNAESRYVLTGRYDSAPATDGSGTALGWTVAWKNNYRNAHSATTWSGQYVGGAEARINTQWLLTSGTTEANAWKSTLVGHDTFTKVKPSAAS
# Procedure: We next asked if the bead binding assay could distinguish complexes with different affinities for SA. 10 μm TentaGel beads displaying compound 2, compound 3, the oxazole analogue of compound 2 (Figure S4), or the SA-binding macrocycle 1 shown in Figure a were exposed to different concentrations of SA-647 ranging from 0.1 to 1000 nM. After washing, the intensity of fluorescence retained on the beads was measured using a flow cytometer, and the results were plotted as the mean fluorescence intensity (MFI) on the beads vs the protein concentration. […] Macrocycle 1, which binds SA with a K D of about 600 nM in solution (more than 1000 times more tightly than compound 2), binds SA-647 on resin at far lower concentrations than does compound 2.
# [3] = system: monomeric streptavidin (mSA-647); assay: Bead pull-down with monomeric streptavidin; format: binding; details: mSA-647 500 nM, 1 h, PBST, room temperature
# Procedure: To investigate this, compound 2-displaying, compound 3-displaying, or blank (acetylated) beads were incubated with tetrameric SA-647 or iFluor647-conjugated monomeric streptavidin (mSA-647). Biotin-displaying beads (Figure S3) were also included in this experiment as a high-affinity comparator. […] No binding of either protein to compound 3-displaying beads was observed.
# 3 Stable binding of tetrameric SA to beads displaying compound 2 is highly dependent on avidity. […] Each compound was represented by 1 million 10 μm TentaGel beads, with 250,000 beads used per technical replicate. (b) Effect of ligand functionalization density on compound binding. Beads were functionalized with compound 2, compound 3, or biotin at varying surface densities (100% to 5%) and incubated with SA-647 (500 nM) for 1 h in PBST at room temperature as previously, before recording the fluorescence intensity.
# (§1) General notes: • At each step, contents were mixed by pipetting up and down 3–5 times. • All steps following the addition of SA-647 were conducted in the dark. • SA-647 and mSA-647 were purchased from commercial sources; (SA-647: ThermoFisher cat#S3235, mSA-647: Millipore SAE178).
# [4] = molecular target: T6, tetrameric streptavidin (SA-647) (Streptomyces avidinii, UniProt P22629); assay: Bead pull-down: SA-647 retained by compound-displaying TentaGel beads, plate reader; format: binding; details: SA-647 500 nM
# T6 construct: purchased ThermoFisher S3235
# T6 sequence (P22629 37-163 limits assumed): as above
# From the text: Compounds 2 and 3 were then constructed on 10 μm TentaGel beads via straightforward solid-phase synthesis, along with acetylated beads, which as a “blank” (Figure c). TentaGel beads consist of an amino-polystyrene core onto which is grafted a thick layer of amine-terminated PEG chains. An additional mini-PEG spacer was incorporated prior to coupling the compounds to further improve spatial accessibility and aqueous display of the compounds (see Experimental Section for detailed synthesis). The beads were incubated with AlexaFluor 647-conjugated SA (SA-647) in phosphate-buffered saline supplemented with 0.05% Tween 20 (PBST) for 1 h at room temperature in the dark. Following incubation, the beads were washed thoroughly (see Experimental Section for a detailed protocol), then resuspended in PBST. The amount of fluorescent SA retained by the resin was analyzed using a Tecan multiwell plate reader equipped with appropriate excitation and emission filters (excitation at 650 nm, emission at 665 nm).
# as §1
# A 96-well Multiscreen hydrophilic assay plate (MilliporeSigma, MSBVN12) was activated by treating each well with 150 μL of 70% (v/v) ethanol in water. The solvent was removed under vacuum, and the wells were washed with PBST (3 × 150 μL). Fresh PBST (150 μL) was then added to each well.
# The plate was drained and washed again with PBST (3 × 150 μL), followed by the addition of 150 μL PBST per well. Plates were shaken overnight at ambient temperature on an orbital plate shaker.
# The next day, wells were drained and incubated with 150 μL of a 1:1 (v/v) solution of PBST:PBS blocking buffer (Thermo Scientific, 37538) for 1 h at room temperature. After removal of the blocking buffer, 100 μL PBST was added to each well and mixed thoroughly. A 20 μL aliquot from each well was transferred to a black 384-well flat-bottom plate (Corning, 3820) for background (blank) measurements.
# The remaining PBST was removed, and the beads were incubated with SA-647 (500 nM in 1:1 PBST/blocking buffer, 150 μL per well) for 1 h at room temperature. After incubation, wells were washed with PBST while shaking (3 × 20 min). A final 150 μL PBST wash was performed and drained. Fresh PBST (80 μL) was added to each well, and the contents were transferred to labeled PCR tubes. Samples were briefly vortexed and mixed by pipetting.
# Each sample was transferred to a black 384-well plate in triplicate (3 × 20 μL per well). The plate was sealed with a foil sticker and centrifuged at 250g for 1 min. Fluorescence intensity was measured using a TECAN plate reader. Background fluorescence (from blank wells) was subtracted prior to further data analysis.
# [5] = molecular target: T6, tetrameric streptavidin (SA-647); assay: as above; format: binding; details: SA-647 (100 nM), plate reader
# SA [6] = details: in solution; cited from earlier work
# SA [7] = assay: Affinity of macrocycle 1 for SA in solution; format: binding; details: KD in solution against KD of compound 2
# [8] = soluble mini-PEG attached compound, immobilized SA, read-out: KD (SPR)
compound,measurement,setting,value
NC(=O)CNC(=O)COCCOCCNC(=O)CNC(=O)c1cnc2[nH]ccc2c1 [A85],effect of soluble Rpn2 peptide competitor on binding of GST-Rpn13 PRU,[1],strongly suppressed binding
same,Kd,"Rpn13 PRU; soluble compound, biotinylated Rpn13 PRU immobilized on SA chip, read-out: KD (SPR)",> 2000 µM
same,fluorescence intensity in GST-Rpn13 PRU screen,[2],above-background fluorescence
CC(=O)N(Cc1ccccc1)Cc1nc(C(=O)N(C)CC(=O)NCCOCCOCC(=O)NCC(N)=O)cs1 [Compound 3],binding to SA by SPR (in words),"Streptavidin (SA); soluble compound, immobilized SA",no detectable binding
same,dose-dependent binding of SA-647 (MFI by flow cytometer),SA-647,not
same,binding of mSA-647 to bead-displayed ligand,[3],No binding
same,"Fluorescence intensity, Average","[4]; 12 replicates, after background subtraction, Z' calculation",177
same,binding of SA-647 to bead-displayed compound (fluorescence),"[4]; 1 h, PBST, room temperature, after washing",failed to retain more labeled SA than the acetylated “blank” beads; also recorded: No binding
same,"Fluorescence intensity, individual replicate","[4]; replicates 1-12, after background subtraction, Z' calculation",76 and 119 and 260 and 226 and 50 and 156 and 122 and 81 and 136 and 180 and 145 and 568
CN(CC(=O)NCCOCCOCC(=O)NCC(N)=O)C(=O)c1csc(CN(Cc2cccnc2)C(=O)c2ccc3[nH]ccc3c2)n1 [Compound 7],SA-647 retained by bead-displayed grown compound relative to parent compound 2,[5],retained less SA-647 than compound 2
same,Kd,Streptavidin (SA); [8],780 µM
CN(CC(=O)NCCOCCOCC(=O)NCC(N)=O)C(=O)c1csc(CN(Cc2cccnc2)C(=O)c2ccc(F)c(F)c2)n1 [Compound 6],SA-647 retained by bead-displayed grown compound relative to parent compound 2,[5],captured less SA-647 than bead-displayed 4 but more than bead-displayed 2
same,Kd,Streptavidin (SA); [8],330 µM
NC(=O)CNC(=O)COCCOCCNC(=O)CNC(=O)c1ccc2nc(-c3ccncc3)[nH]c2c1 [A63],effect of soluble Rpn2 peptide competitor on binding of GST-Rpn13 PRU,[1],strongly suppressed binding
same,KD (SPR),"Rpn13 PRU; soluble compound, biotinylated Rpn13 PRU immobilized on SA chip",A similar result
same,Kd,"Rpn13 PRU; supplementary CSV, solution dissociation constants, read-out: KD for Rpn13 PRU",> 2000 µM
same,fluorescence intensity in GST-Rpn13 PRU screen,[2],above-background fluorescence
CN(CC(=O)NCCOCCOCC(=O)NCC(N)=O)C(=O)c1csc(CN(Cc2cccnc2)C(=O)c2ccc(F)c(C#N)c2)n1 [Compound 5],Kd,"Streptavidin (SA); supplementary CSV, solution dissociation constants, read-out: KD for SA",160 µM
"O=C(O)CCCC[C@@H]1SC[C@@H]2NC(=O)N[C@@H]21 [biotin, reference compound]",binding of mSA-647 to bead-displayed ligand,[3],readily observable
same,dependence of SA-647 retention on ligand density,[4]; site functionalization 100% to 5%,insensitive to ligand density
CN(CC(=O)NCCOCCOCC(=O)NCC(N)=O)C(=O)c1csc(CN(Cc2cccnc2)C(=O)C2CCC(=O)C2)n1 (centres unmarked) [Compound 4],SA-647 retained by bead-displayed grown compound relative to parent compound 2,[5],retained the most SA-647
same,improvement of KD over the parent compound 2,"Streptavidin (SA); SPR, immobilized SA",7.8 fold
same,Kd,Streptavidin (SA); [8],90 µM
NC(=O)[C@H]1CSCc2cccc(c2)C(=O)N(Cc2cccnc2)Cc2nc(cs2)C(=O)N(Cc2ccc(F)c(F)c2)Cc2nc(co2)C(=O)N1 [Compound 1],dose-dependent binding of SA-647 (MFI by flow cytometer),SA-647,dose-dependent binding
same,Kd,SA [6],~0.6 µM
same,tighter binding to SA than compound 2,SA [7],more than 1000 times
